# In patent publication US8680113B2, “BMI-1 protein expression modulators” (PTC Therapeutics, Inc., priority 2008, dated 2014):
# pIC50: −log10 of the molar value.
# Tested on: Bmi-1
# Experiment: Sandwich ELISA Assay (Bmi-1 ELISA in HT-1080 cells)
# Format: cell-based, human
# Description: Cell Seeding and Compound Treatment (Day 1):
# HT-1080 cells were seeded at 8000 cells/well (50 uL) in 96-well tissue culture plates. After the cells become adherent (3-4 hours), 2× diluted stocks of compounds in 50 uL DMEM containing 1% DMSO (final DMSO concentration was 0.5%) were added and the plates were incubated at 37° C. under 5% CO2 for 40-48 hours
# ELISA Plate First Antibody Preparation (Day 2):
# The First Antibody (Millipore Mouse, monoclonal to mouse Bmi-1, clone F6, catalog #05-637) diluted to 2 ug/mL in PBS was added (100 uL) to each well of a Nunc MaxiSorp 96-well ELISA plate. The plate was covered with a plate seal and allowed to stand overnight.
# Cell Lysate Preparation (Day 3):
# Fresh 1× Lysis buffer was prepared on the day of the assay as follows: 1 mM EDTA, 150 mM NaCl, 0.5% Triton-X 100, 10 mM NaF, 20 mM B-Glycerophosphate, 1 mM DTT (in PBS, pH 7.2-7.4) and 1×HALT protease inhibitor cocktail (Pierce #78410).
# 1× Lysis Buffer (40 uL) was added to each well and the plate was shaken for 5-10 minutes on an orbital shaker to allow cell lysis, then Diluent (1% BSA in PBS in 0.5% NP40) (100 uL) was added to each well.
# The Bmi-1 standard curve was prepared in Diluent at the following concentrations of protein: 8000, 4000, 2000, 1000, 500, 250, 125, 0 pg/mL The Bmi-1 Recombinant Protein Standard (Novus Biologicals PCGF4 Recombinant Protein (P01), catalog #H00000648-P01) used in the standard curve was stored at −80° C., and on first thaw, diluted to 10 ug/uL in Blocking Buffer (1% BSA in PBS; BSA: Fisher Scientific Catalog #1600-100) before being aliquoted and refrozen at −80° C. Aliquots can be kept at 4° C. and reused after first thaw, but only for 1-2 weeks. The Bmi-1 Recombinant Protein Standard contains a GST-fusion tag and thus will show up on western blots around 70 Kda.
# The prepared ELISA plate was washed 3× with Wash Buffer (0.05% Tween-20 in PBS). The final wash was removed from the plate and the plate was blotted dry on paper towels. Blocking Buffer (300 uL) (1% BSA in PBS) was added per well. The plate was covered with a plate seal and incubated at room temperature for 1 hour. The blocked plate was washed 3× with Wash Buffer, the final wash was removed and the plate was blotted dry on paper towels. The previously prepared samples and standards were added (at 100 uL/well) and the plate was covered with a plate seal and incubated at 4° C. overnight.
# The prepared ELISA plate was removed from 4° C., incubated at room temperature for 30 minutes, then washed and blotted dry as previously described for Day 3. The Second Antibody (Cell Signaling Rabbit anti-Bmi-1, Cat#2830) diluted to 1:600 in Blocking Buffer was added (100 uL) to each well, except as needed for background control wells. The plate was covered with a plate seal and incubated for 1.5 hrs at room temperature.
# The ELISA plate was washed and blotted dry as previously described. The Third Antibody (Cell Signaling HRP conjugated anti-rabbit IgG (CellSignaling, Cat#:7074) diluted to 1:300 in Blocking Buffer was added (100 uL) to each well, except as needed for background control wells. The plate was incubated for 1 hr at room temperature.
# The plate was washed and blotted dry as previously described, then prepared TMB substrate (TMB substrate kit, Pierce catalog #34021) (prepared by mixing kit reagents 1:1) (100 uL) was added per well. The plate was incubated for 20-30 minutes at room temperature in the dark, then Stop Solution (2 M sulfuric acid in water) (50 uL) was added per well. The plates were read at OD450 (experimental) and OD570 (reference).
row,Molecule,pIC50
1,"Cc1nc2ccc(F)cn2c1-c1csc(Nc2ccc(N(C)C)cc2)n1 [Cpd 157, N′-[4-(6-fluoro-2-methylimidazo[1,2-a]pyridin-3-yl)-1,3-thiazol-2-yl]-N,N-dimethylbenzene-1,4-diamine]",> 6.30
2,"CCc1ccc(Nc2nc(-c3c(C)nc4ccccn34)cs2)cc1 [Cpd 192, N-(4-ethylphenyl)-4-(2-methylimidazo[1,2-a]pyridin-3-yl)-1,3-thiazol-2-amine]",> 6.30
3,"CC(=O)c1ccc(Nc2nccc(-c3c(C)nc4ncccn34)n2)cc1 [Cpd 131, 1-(4-{[4-(2-methylimidazo[1,2-a]pyrimidin-3-yl)pyrimidin-2-yl]amino}phenyl)ethanone]",> 6.30
4,"Cc1nc2ccccn2c1-c1csc(Nc2ccc(Cl)cc2)n1 [Cpd 199, N-(4-chlorophenyl)-4-(2-methylimidazo[1,2-a]pyridin-3-yl)-1,3-thiazol-2-amine]",> 6.30
5,"c1ccn2c(-c3ccnc(Nc4ccc5c(c4)OCO5)n3)cnc2c1 [Cpd 251, N-(1,3-benzodioxol-5-yl)-4-(imidazo[1,2-a]pyridin-3-yl)pyrimidin-2-amine]",> 6.30
6,"Cc1nc2ncccn2c1-c1csc(Nc2ccc(C(C)C)cc2)n1 [Cpd 87, 4-(2-methylimidazo[1,2-a]pyrimidin-3-yl)-N-[4-(propan-2-yl)phenyl]-1,3-thiazol-2-amine]",> 6.30
7,"CCc1nc2ncccn2c1-c1csc(Nc2ccc(I)cc2)n1 [Cpd 149, 4-(2-ethylimidazo[1,2-a]pyrimidin-3-yl)-N-(4-iodophenyl)-1,3-thiazol-2-amine]",> 6.30
8,"COCCOc1ccc(Nc2nc(-c3c(C)nc4ccc(C)cn34)cs2)cc1 [Cpd 74, 4-(2,6-dimethylimidazo[1,2-a]pyridin-3-yl)-N-[4-(2-methoxyethoxy)phenyl]-1,3-thiazol-2-amine]",> 6.30
9,"COc1ccc(Nc2nccc(-c3cnc4ncccn34)n2)cc1 [Cpd 261, 4-(imidazo[1,2-a]pyrimidin-3-yl)-N-(4-methoxyphenyl)pyrimidin-2-amine]",> 6.30
10,"Fc1cccc(Nc2nccc(-c3cnc4ncccn34)n2)c1 [Cpd 267, N-(3-fluorophenyl)-4-(imidazo[1,2-a]pyrimidin-3-yl)pyrimidin-2-amine]",> 6.30
11,"Cc1nc2c(Br)cccn2c1-c1csc(Nc2ccc3c(c2)OCO3)n1 [Cpd 235, N-(1,3-benzodioxol-5-yl)-4-(8-bromo-2-methylimidazo[1,2-a]pyridin-3-yl)-1,3-thiazol-2-amine]",> 6.30
12,"CC(=O)c1ccc(Nc2nccc(-c3c(C)nc4ccccn34)n2)cc1 [Cpd 117, 1-(4-{[4-(2-methylimidazo[1,2-a]pyridin-3-yl)pyrimidin-2-yl]amino}phenyl)ethanone]",> 6.30
13,"Cc1nc2ncccn2c1-c1csc(N(C)c2ccc3c(c2)OCO3)n1 [Cpd 40, N-(1,3-benzodioxol-5-yl)-N-methyl-4-(2-methylimidazo[1,2-a]pyrimidin-3-yl)-1,3-thiazol-2-amine]",> 6.30
14,"Cc1nc2ncccn2c1-c1csc(Nc2ccc(Br)cc2)n1 [Cpd 48, N-(4-bromophenyl)-4-(2-methylimidazo[1,2-a]pyrimidin-3-yl)-1,3-thiazol-2-amine]",> 6.30
15,"COc1ccc(Nc2nc(-c3cnc4ccc(Cl)cn34)cs2)cc1 [Cpd 105, 4-(6-chloroimidazo[1,2-a]pyridin-3-yl)-N-(4-methoxyphenyl)-1,3-thiazol-2-amine]",> 6.30
16,"Cc1nc2ncccn2c1-c1nc(Nc2ccc(I)cc2)sc1C [Cpd 122, N-(4-iodophenyl)-5-methyl-4-(2-methylimidazo[1,2-a]pyrimidin-3-yl)-1,3-thiazol-2-amine]",> 6.30
17,"Cc1nc2ccccn2c1-c1ccnc(Nc2ccc3c(c2)OCO3)n1 [Cpd 123, N-(1,3-benzodioxol-5-yl)-4-(2-methylimidazo[1,2-a]pyridin-3-yl)pyrimidin-2-amine]",> 6.30
18,"COc1ccc(Nc2nc(-c3c(C)nc4ccccn34)cs2)cc1OC [Cpd 202, N-(3,4-dimethoxyphenyl)-4-(2-methylimidazo[1,2-a]pyridin-3-yl)-1,3-thiazol-2-amine]",> 6.30
19,"1-(3-{[4-(6-fluoro-2-methylimidazo[1,2-a]pyridin-3-yl)-1,3-thiazol-2-yl]amino}phenyl)ethanone [Cpd 238]",> 6.30

# Results, then the molecule that gave them:
row,pIC50,Molecule
1,> 6.30,"Cc1ccn2c(-c3csc(Nc4ccc(I)cc4)n3)c(C)nc2c1 [Cpd 69, 4-(2,7-dimethylimidazo[1,2-a]pyridin-3-yl)-N-(4-iodophenyl)-1,3-thiazol-2-amine]"
2,> 6.30,"Cc1nc2ccccn2c1-c1csc(Nc2ccc(Br)cc2Cl)n1 [Cpd 200, N-(4-bromo-2-chlorophenyl)-4-(2-methylimidazo[1,2-a]pyridin-3-yl)-1,3-thiazol-2-amine]"
3,> 6.30,"Cc1nc2ccc(Cl)cn2c1-c1csc(Nc2ccc3c(c2)OC(C)(C)O3)n1 [Cpd 219, 4-(6-chloro-2-methylimidazo[1,2-a]pyridin-3-yl)-N-(2,2-dimethyl-1,3-benzodioxol-5-yl)-1,3-thiazol-2-amine]"
4,> 6.30,"Cc1ccc(Nc2nc(-c3c(C)nc4ccc(F)cn34)cs2)cc1 [Cpd 237, 4-(6-fluoro-2-methylimidazo[1,2-a]pyridin-3-yl)-N-(4-methylphenyl)-1,3-thiazol-2-amine]"
5,> 6.30,"COc1ccc(Nc2nc(-c3c(C)nc4ccc(F)cn34)cs2)cc1F [Cpd 155, N-(3-fluoro-4-methoxyphenyl)-4-(6-fluoro-2-methylimidazo[1,2-a]pyridin-3-yl)-1,3-thiazol-2-amine]"
6,> 6.30,"Cc1ccc(Nc2nc(-c3c(C)nc4ccc(Cl)cn34)cs2)c(Br)c1 [Cpd 205, N-(2-bromo-4-methylphenyl)-4-(6-chloro-2-methylimidazo[1,2-a]pyridin-3-yl)-1,3-thiazol-2-amine]"
7,> 6.30,"Cc1ccn2c(-c3csc(Nc4ccc(Cl)cc4)n3)c(C)nc2c1 [Cpd 65, N-(4-chlorophenyl)-4-(2,7-dimethylimidazo[1,2-a]pyridin-3-yl)-1,3-thiazol-2-amine]"
8,> 6.30,"COc1ccc(Nc2nc(-c3c(C)nc4ccc(Br)cn34)cs2)cc1F [Cpd 104, 4-(6-bromo-2-methylimidazo[1,2-a]pyridin-3-yl)-N-(3-fluoro-4-methoxyphenyl)-1,3-thiazol-2-amine]"
9,> 6.30,"Cc1nc2ccc(Cl)cn2c1-c1csc(Nc2cccc(O)c2)n1 [Cpd 210, 3-{[4-(6-chloro-2-methylimidazo[1,2-a]pyridin-3-yl)-1,3-thiazol-2-yl]amino}phenol]"
10,> 6.30,"Cc1nc2ccc(F)cn2c1-c1csc(Nc2c(Br)cccc2Br)n1 [Cpd 239, N-(2,6-dibromophenyl)-4-(6-fluoro-2-methylimidazo[1,2-a]pyridin-3-yl)-1,3-thiazol-2-amine]"
11,> 6.30,"CC(=O)c1ccc(Nc2nc(-c3c(C)nc4ccc(Br)cn34)cs2)cc1 [Cpd 99, 1-(4-{[4-(6-bromo-2-methylimidazo[1,2-a]pyridin-3-yl)-1,3-thiazol-2-yl]amino}phenyl)ethanone]"
12,> 6.30,"Cc1nc2ccc(Cl)cn2c1-c1csc(Nc2ccc(Br)cc2Cl)n1 [Cpd 132, N-(4-bromo-2-chlorophenyl)-4-(6-chloro-2-methylimidazo[1,2-a]pyridin-3-yl)-1,3-thiazol-2-amine]"
13,> 6.30,"CC(=O)c1cccc(Nc2nc(-c3c(C)nc4ccc(Cl)cn34)cs2)c1 [Cpd 211, 1-(3-{[4-(6-chloro-2-methylimidazo[1,2-a]pyridin-3-yl)-1,3-thiazol-2-yl]amino}phenyl)ethanone]"
